One assay deals with V2 (Homo sapiens, UniProt P30518). The assay is described as follows: V2 receptor inhibition data (Ki). Format: binding. To be noted: receptor selectivity table.
A further assay addresses T1, V1b receptor (Homo sapiens, UniProt P47901).
T1 construct: expressed in transfected cells; host or cells: CHO-K1 (ATCC), vector pCI-neo, G418-selected clones
T1 sequence (P47901 1-424): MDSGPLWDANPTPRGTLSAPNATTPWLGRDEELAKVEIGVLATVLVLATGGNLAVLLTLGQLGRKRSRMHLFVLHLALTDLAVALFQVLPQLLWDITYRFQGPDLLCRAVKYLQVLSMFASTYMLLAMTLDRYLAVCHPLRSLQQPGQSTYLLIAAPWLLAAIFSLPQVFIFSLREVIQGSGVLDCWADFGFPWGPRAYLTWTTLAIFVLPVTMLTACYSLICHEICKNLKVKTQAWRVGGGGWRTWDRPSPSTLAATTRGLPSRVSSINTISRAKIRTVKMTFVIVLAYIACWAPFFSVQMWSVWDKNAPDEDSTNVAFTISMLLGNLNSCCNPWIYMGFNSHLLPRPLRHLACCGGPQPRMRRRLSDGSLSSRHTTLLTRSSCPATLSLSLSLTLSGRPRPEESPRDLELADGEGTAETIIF
The assay is described as follows: Human or rat vasopressin V1b cell-based receptor binding assay. As to conditions: receptor selectivity table; read-out: inhibition data Ki, V1b. The source says: Human vasopression V1b receptor-expressing cells. Human vasopressin receptor 1b (hV1b) cDNA (see, Lolait et al., “Extrapituitary expression of the rat V1b vasopressin receptor gene” Proc. Natl. Acad. Sci. USA. 92:6783-7 (1995); de Keyzer et al., “Cloning and characterization of the human V3(V1b) pituitary vasopressin receptor” FEBS Lett. 356:215-20 (1994); Sugimoto et al., “Molecular cloning and functional expression of a cDNA encoding the human V1b vasopressin receptor” J. Biol. Chem. 269:27088-92 (1994)) was inserted into a mammalian cell expression vector PCI-neo (Promega) at EcoR1 site. The recombinant plasmid carrying hV1b cDNA was identified from transformed E. Coli clones and used for the transfection of Chinese hamster ovary cell (CHO-Kl, ATCC). Two micrograms of hV1b receptor DNA was introduced into 10^5 CHO cells cultured in 6-well plate, using Fugene-6 mediated transfection technique (Boehringer Mannheim). Twenty-four hrs post transfection, Cells were then cultured under selection of G-418 (0.25 mg/ml) supplemented to the culture medium. Three days later, limited dilution was carried out to obtain single cell clones in 96-well plates. […]
Human or rat vasopression V1b cell-based receptor binding assay. […] Samples were counted in a liquid scintillation counter (Beckman LS3801). IC50 and Ki values were calculated using Prism Curve fitting software. […]

The target in another assay is T2, human V1a receptor (Homo sapiens, UniProt P37288).
T2 construct: host or cells: CHO cells (hV1a cell line)
The assay is described as follows: Human vasopressin V1a receptor binding assay (3H-AVP competition, hV1a CHO cells). In short, it runs like this:
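Whole CHO cells expressing hV1a were incubated with 1 nM 3H-AVP (as printed "InM") and 10-fold dilutions of compound in HEPES/BSA/DMEM buffer, pH 7.0, for 45 min at 37 °C. Non-specific binding was defined with 100 nM cold AVP. Bound radioactivity was SDS-solubilised and counted by scintillation; IC50 from curve fitting.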

Read-outs that look alike come from different tables or passages of the source. Where only a bound is given, the exact number is not on record here.

Broadly, the Ki is a dissociation constant, usually derived from enzyme kinetics or from competition with a known ligand. By IC50 is commonly meant the concentration needed to halve the response being measured.

T2 sequence (P37288 whole entry): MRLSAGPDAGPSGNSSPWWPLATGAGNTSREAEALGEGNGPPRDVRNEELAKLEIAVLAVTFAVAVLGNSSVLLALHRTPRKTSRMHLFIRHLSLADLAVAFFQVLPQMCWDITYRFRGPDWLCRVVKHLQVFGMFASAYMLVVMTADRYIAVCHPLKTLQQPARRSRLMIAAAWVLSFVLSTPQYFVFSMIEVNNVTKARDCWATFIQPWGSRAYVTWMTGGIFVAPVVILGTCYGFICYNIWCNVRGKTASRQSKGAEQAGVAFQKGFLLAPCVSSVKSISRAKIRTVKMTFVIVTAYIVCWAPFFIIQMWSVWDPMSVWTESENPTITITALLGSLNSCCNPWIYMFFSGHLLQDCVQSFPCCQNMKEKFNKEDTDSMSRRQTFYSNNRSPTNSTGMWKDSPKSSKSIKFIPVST
V2, sequence (P30518 whole entry): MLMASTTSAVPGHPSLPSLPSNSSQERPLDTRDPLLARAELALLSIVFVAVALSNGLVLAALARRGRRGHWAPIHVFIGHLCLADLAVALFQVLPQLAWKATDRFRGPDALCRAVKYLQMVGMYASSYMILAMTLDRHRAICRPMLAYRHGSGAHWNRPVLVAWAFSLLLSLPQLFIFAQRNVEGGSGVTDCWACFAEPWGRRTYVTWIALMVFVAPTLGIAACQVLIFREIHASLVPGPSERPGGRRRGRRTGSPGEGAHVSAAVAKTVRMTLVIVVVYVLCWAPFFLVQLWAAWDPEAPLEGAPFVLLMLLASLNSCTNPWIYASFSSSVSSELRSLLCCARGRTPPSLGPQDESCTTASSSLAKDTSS

As to `C[C@@H](NC(=O)[C@@H](CC(=O)N1CCC(N2CCCCC2)CC1)N1C(=O)[C@@H](N2C(=O)OC[C@@H]2c2ccccc2)[C@H]1/C=C/c1cccc(I)c1)c1ccccc1` [Example 266], the Ki on V2 is over 1000 nM; at V1b receptor, over 100 nM; at human V1a receptor (3H-AVP competition, CHO cells expressing human V1a, read-out: V1a Ki), 1.1 nM; on human V1a receptor (receptor selectivity table, read-out: inhibition data Ki, V1a) it was 1.1 nM. At human V1a receptor (3H-AVP competition, CHO cells expressing human V1a, read-out: V1a Binding Affinity IC50), the IC50 stood at 1.8 nM.

The values above are taken from patent publication US11319306B2, “Compositions and methods for treating neurodegenerative diseases” (Azevan Pharmaceuticals, Inc., priority 2014, dated 2022).
